In one data set the target is SARS-CoV-2 M^pro (Severe acute respiratory syndrome coronavirus 2, UniProt P0DTD1). Format: biochemical.
The conditions of data set [1]: concentrations ranging from 100 μg/mL to 10 ng/mL; cited from earlier work.
For data set [2] the following is noted: patients with hypoprothrombinemia, doses from 1 to 200 mg; cited from earlier work.
The next data set concerns Vero E6 cells. To be noted: under tested concentrations.
The conditions of data set [3]: Balb/C mice, 100 mg/kg, p.o., 10 times in 20 days.
Data set [4] concerns human normal fibroblast HFF-1 cells. The data set is described as follows: In vitro cytotoxicity evaluation, MTT assay. To be noted: read-out: IC50 values towards HFF-1 cells, 48 h. Format: cell-based. A general note: Tetrazolium dyes change colour on reduction, which living cells bring about.
The subject of data set [5] is normal peripheral blood mononuclear cells. To be noted: cited from earlier work.
The subject of data set [6] is Vesicular Stomatitis Virus. To be noted: cited from earlier work.
The next data set concerns latent HIV-1. To be noted: bcl-2-transduced primary CD4+ T cell model; cited from earlier work.

Read-outs that look alike come from different tables or passages of the source.

The source of these data is article PMC8372460 (European Journal of Medicinal Chemistry, 2021).

`CC(C)=CC[C@@H](O)C1=CC(=O)c2c(O)ccc(O)c2C1=O` [Compound 1, shikonin, reference compound]: the “inhibitory effect towards M^pro (in words)” value against SARS-CoV-2 M^pro (10 μM) is “moderate inhibitory effects”. In addition, the “cytotoxic effects in vitro” value in [1] is “significant cytotoxic effects”.
For `CC1=CC(=O)c2ccccc2C1=O` [Compound 3, 2-Methyl-1,4-naphthoquinone, reference compound], the “inhibitory effect towards M^pro (in words)” value on SARS-CoV-2 M^pro (10 μM) is “inactive”. Besides, the “toxic effects in patients” value in data set [2] was “no toxic effects were observed”.
For the molecule `O=C1C=C(O)C(=O)c2ccccc21` [Compound 7, 2-hydroxy-1,4-naphthoquione], at SARS-CoV-2 M^pro (10 μM), the “inhibitory effect towards M^pro (in words)” value is “did not exhibit any detectable inhibition”.
As for `COc1cccc2c1C(=O)C(C(C)=O)=CC2=O` [Compound 15, 2-acetyl-8-methoxy-1,4-naphthoquinone], the “toxicity towards host Vero E6 cells (in words)” value with Vero E6 cells is recorded as “non-toxic”. In data set [3], the animal deaths entry is on record as “no animal deaths” and the “body weight change compared with control animals” value was “minor body weight loss”. For the same molecule, the “toxicity symptoms (reduced activity, hypothermia, body shivering)” value in [3] (every other day) was “did not show any obvious toxicity symptoms”.
For the molecule `COc1cc(C)cc2c1C(=O)C=CC2=O` [Compound 22, 7-methyl juglone methyl ether], the “inhibitory effect towards M^pro (in words)” value at SARS-CoV-2 M^pro is “did not show any inhibitory effects”.
Take `CC1=CC(=O)c2c(O)cccc2C1=O` [Compound 17, Plumbagin]: the “inhibitory effect towards M^pro (in words)” value against SARS-CoV-2 M^pro (10 μM) is “inactive”.
As for `Cc1cc(O)c2c(c1)C(=O)C=CC2=O` [Compound 16, 7-Methyl juglone], in [4], the IC50 was < 5 µM. Further, at SARS-CoV-2 M^pro, the “Mpro inhibition rate at different conc. (%) 0.1 μM” value is on record as 21.7%, the “Mpro inhibition rate at different conc. (%) 1 μM” value is reported as 99.6% and the “inhibitory effect towards M^pro (in words)” value is reported as “completely loss of the hydrolytic efficacy”.
Turning to `O=C1C=CC(=O)c2c(O)cccc21` [Compound 2, juglone], the “IC50, cytotoxicity against normal peripheral blood mononuclear cells” value in [5] is “more than 5 μg/mL”. Also, in data set [4], the IC50 is < 5 µM. Moreover, the figures for the “inhibitory effect towards M^pro (in words)” value on SARS-CoV-2 M^pro (1 μM) and against SARS-CoV-2 M^pro (10 μM) were “completely inactivated the main protease” and “completely loss of the hydrolytic efficacy”, respectively. For the same molecule, the “activity against Vesicular Stomatitis Virus” value in [6] was “active”. Also, the “reactivation of latent HIV-1” value in the data set with latent HIV-1 is reported as “potently reactivate latent HIV-1”.

By IC50 is commonly meant the concentration needed to halve the response being measured.
